Values of other authors, collected in publication PMC12308805, “Ultrahigh-Throughput Virtual Screening Strategies against PPI Targets: A Case Study of STAT Inhibitors” (Journal of Chemical Information and Modeling, 2025).
Square brackets hold non-standard residues; d marks the D form. Peptide text beside a SMILES is read from it. * marks the point of attachment. pY = N[C@@H](Cc1ccc(OP(=O)(O)O)cc1)C(=O)O; NH(1S-phenylethyl) = C[C@H](N*)c1ccccc1

Test system: STAT3
Details: sheet 6QHD_actives_decoys, retrospective screening set for STAT3 SH2 domain (PDB 6QHD); decoys are presumed inactives, not tested; ref DUD-E; cited from earlier work
In the case of `C[C@H](OC(=O)c1sccc1NS(C)(=O)=O)C(=O)NCC(=O)Nc1ccc(F)c(F)c1F` [Decoy852], the Type is listed as “Inactive (Decoy)”.
In the case of `CCOc1ccc(-n2c(SCC(=O)N/N=C/c3ccc(OC)c(OC)c3OC)nnc2-c2ccccc2)cc1` [Decoy778], the Type is listed as “Inactive (Decoy)”.
For `CC(=O)OC[C@@H]1O[C@@H](Oc2cc(O)cc(O)c2C(=O)CCc2ccc([N+](=O)[O-])cc2)[C@@H](OC(C)=O)[C@H](OC(C)=O)[C@H]1OC(C)=O` [Decoy880], the Type is given as “Inactive (Decoy)”.
For `CCOC(=O)c1c(NC(=O)CSc2n[nH]c(N/N=C/c3c[nH]c4ccccc34)n2)sc2c1CCC2` [Decoy751], the Type is given as “Inactive (Decoy)”.
For `CCCCOC(=O)C1=C(C)Nc2nc(SCc3ccccc3Cl)nn2[C@@H]1c1ccccc1C(=O)O` [Decoy762], the Type is listed as “Inactive (Decoy)”.
For `COc1cc(S(=O)(=O)N2CCCCC2)ccc1N/C=C1\C(=O)NC(=O)N(c2ccc(C)cc2)C1=O` [Decoy837], the Type is given as “Inactive (Decoy)”.
For `COc1cc(/C(C)=N/NC(=O)c2nnn(-c3nonc3N)c2COc2ccc(F)cc2)ccc1OCc1ccc(Cl)cc1` [Decoy887], the Type is given as “Inactive (Decoy)”.
For `CCOC(=O)c1ccc(NC(=O)C(=O)NCc2ccc(/C=C3\C(=O)N(c4ccc(Cl)c(Cl)c4)C(C)=C3C(=O)OC)o2)cc1` [Decoy846], the Type is given as “Inactive (Decoy)”.
In the case of `CC(=O)Nc1ccc(S(=O)(=O)Nc2nnc(CCNS(=O)(=O)c3ccc(C)cc3)s2)cc1` [Decoy958], the Type is listed as “Inactive (Decoy)”.
In the case of `CCOc1ccc(-c2nn(-c3ccccc3)cc2C2C(C(=O)OCCOC)=C(C)NC(C)=C2C(=O)OCCOC)cc1C` [Decoy832], the Type is listed as “Inactive (Decoy)”.
In the case of `COc1cc(/C=C/C(=O)OC[C@H]2O[C@H](O[C@]3(CO)O[C@H](CO)[C@@H](O)[C@@H]3O)[C@H](O)[C@@H](O)[C@@H]2O)cc(OC)c1O` [Decoy815], the Type is listed as “Inactive (Decoy)”.
For `CCCOc1ccc([C@H]2C(C(=O)c3c(C)nc4ccccn34)=C(O)C(=O)N2CCN(CC)CC)cc1OCC` [Decoy760], the Type is given as “Inactive (Decoy)”.
In the case of `CCOC(=O)CCC(=O)O[C@H]1[C@@H](O[C@@H]2[C@H](C)[C@H](O[C@@H]3C[C@@](C)(OC)[C@H](O)[C@H](C)O3)[C@H](C)C(=O)O[C@@H](CC)[C@@](C)(O)[C@H](O)[C@H](C)C(=O)[C@H](C)C[C@@]2(C)O)O[C@@H](C)C[C@H]1N(C)C` [Decoy820], the Type is given as “Inactive (Decoy)”.
In the case of `CC[C@H](C)[C@H](OC(=O)[C@@H](OC(=O)[C@H](O)[C@@H](C)CC)[C@@H](C)CC)C(=O)OC[C@H](O)[C@H](O)[C@H](O)[C@H](O)CO` [Decoy863], the Type is given as “Inactive (Decoy)”.

Same assay, conditions: sheet 6QHD_actives_decoys; known STAT3 actives of the retrospective screening set; ref ChEMBL / literature; cited from earlier work
For `COC(=O)[C@H](CCC(N)=O)NC(=O)[C@@H]1Cc2cccc3c2N1C(=O)[C@@H](NC(=O)/C=C/c1ccc(OP(=O)(O)O)cc1)CC3` [CHEMBL503365], the “Type (known STAT3 active)” value is given as “Active”.
For `CC(C)C[C@H](NC(=O)/C=C/c1ccc(OP(=O)(O)O)cc1)C(=O)N1CCC[C@H]1C(=O)N[C@@H](CCC(N)=O)Cc1ccc(O)cc1` [CHEMBL573903], the “Type (known STAT3 active)” value is given as “Active”.
In the case of `CC(C)C[C@H](NC(=O)/C=C/c1ccc(OP(=O)(O)O)cc1)C(=O)N1CCC[C@H]1C(=O)N[C@@H](CCC(N)=O)C(=O)NCc1ccccc1` [CHEMBL267246], the “Type (known STAT3 active)” value is listed as “Active”.
For `CC(=O)N[C@@H](Cc1ccc(OP(=O)(O)O)cc1)C(=O)N[C@@H](CC(C)C)C(=O)N1CCC[C@H]1C(=O)N[C@@H](CCC(N)=O)C(=O)N[C@@H](C)c1ccccc1` [CHEMBL370208] (Ac-[pY]LPQ-{NH(1S-phenylethyl)}), the “Type (known STAT3 active)” value is listed as “Active”.
For `CC(C)NC(=O)[C@H](CCC(N)=O)NC(=O)[C@@H]1Cc2cccc3c2N1C(=O)[C@@H](NC(=O)/C=C/c1ccc(OP(=O)(O)O)cc1)CC3` [CHEMBL447460], the “Type (known STAT3 active)” value is listed as “Active”.

Same assay, conditions: sheet 6QHD_actives_decoys; retrospective screening set for STAT3 SH2 domain (PDB 6QHD); […]; ref DUD-E; cited from earlier work
In the case of `O=c1c(C[C@@H](O)CN2CCOCC2)c(O)n(C[C@@H](O)CN2CCOCC2)c(=O)n1C[C@H](O)CN1CCOCC1` [Decoy568], the Type is listed as “Inactive (Decoy)”.
For `COc1cc([N+](=O)[O-])ccc1NC(=S)Nc1ccc(S(=O)(=O)Nc2ccc(Cl)nn2)cc1` [Decoy332], the Type is given as “Inactive (Decoy)”.
In the case of `COc1cc([C@H]2C(C#N)=C(N)Oc3[nH]nc(-c4cc(OC)c(OC)c(OC)c4)c32)ccc1OC(=O)N1CCOCC1` [Decoy695], the Type is given as “Inactive (Decoy)”.
For `CSc1cccc(NC(=O)C[C@@H]2SC(N[C@H](c3cccs3)c3c(O)[nH]c(=O)[nH]c3=O)=NC2=O)c1` [Decoy681], the Type is listed as “Inactive (Decoy)”.

Same assay, conditions: sheet 6QHD_actives_decoys; retrospective screening set for STAT3 SH2 domain (PDB 6QHD); decoys generated with DUD-E and presumed inactive, not tested; ref DUD-E; cited from earlier work
In the case of `C/C=C(/C[C@@H](O)N(C=O)Cc1cnc(C)nc1N)SS/C(=C/C)C[C@@H](O)N(C=O)Cc1cnc(C)nc1N` [Decoy342], the Type is given as “Inactive (Decoy)”.
In the case of `CCN(CC)c1ccc(/C=N/NC(=O)CN(c2cc(Cl)ccc2OC)S(=O)(=O)c2ccc(C)c([N+](=O)[O-])c2)cc1` [Decoy710], the Type is given as “Inactive (Decoy)”.
For `CCCN(C(=O)c1cccc([N+](=O)[O-])c1)[C@H](C(=O)NCS(=O)(=O)c1ccc(C)cc1)c1ccc(O)cc1` [Decoy565], the Type is listed as “Inactive (Decoy)”.
For `COc1cc(/C=N/Nc2nnc(SCC(=O)Nc3ccc(C)cc3C)n2N)cc(OC)c1OC` [Decoy379], the Type is listed as “Inactive (Decoy)”.
In the case of `CCOC(=O)CNC(=O)[C@@H](c1ccc(F)cc1)N(C(=O)c1snc(C(N)=O)c1N)c1ccccc1F` [Decoy587], the Type is given as “Inactive (Decoy)”.
For `O=C(CCN(Cc1ccco1)S(=O)(=O)c1ccc(Cl)cc1)NNC(=O)Nc1ccc(OC(F)(F)F)cc1` [Decoy374], the Type is listed as “Inactive (Decoy)”.
In the case of `Nc1ncnc2c1ncn2[C@H]1O[C@@H](CO[P@@](=O)(O)O[P@@](=O)(O)OC[C@H](O)[C@H](O)[C@H](O)C=O)[C@@H](O)[C@@H]1O` [Decoy403], the Type is given as “Inactive (Decoy)”.
For `C=C[C@H]1[C@H](O[C@H]2O[C@@H](CO)[C@@H](O)[C@@H](O)[C@@H]2O)OC=C(C(=O)OC)[C@H]1CCOC(=O)c1cc(O)c(O)c(O)c1` [Decoy699], the Type is listed as “Inactive (Decoy)”.
For `NCCCCCC(=O)OC[C@@H]1O[C@@H](Oc2ccc(-c3coc4cc(O)cc(O)c4c3=O)cc2)[C@@H](O)[C@H](O)[C@@H]1O` [Decoy461], the Type is given as “Inactive (Decoy)”.
For `CC[C@H]1OC(=O)[C@H](C)[C@@H](O[C@@H]2C[C@](C)(OC)[C@H](O)[C@H](C)O2)[C@H](C)[C@H](O[C@H]2O[C@@H](C)C[C@@H](N(C)C)[C@H]2O)[C@](C)(O)C[C@@H](C)/C(=N\OCOCCOC)[C@H](C)[C@@H](O)[C@]1(C)O` [Decoy582], the Type is listed as “Inactive (Decoy)”.
For `COc1ccc(C(=O)O[C@H]2[C@@H]3C=CO[C@@H](O[C@@H]4O[C@H](COC(C)=O)[C@@H](OC(C)=O)[C@H](OC(C)=O)[C@H]4OC(C)=O)[C@@H]3[C@](O)(COC(C)=O)[C@@H]2O)cc1` [Decoy372], the Type is listed as “Inactive (Decoy)”.
For `COC(=O)/C(=N/NC(C)(C)C)[C@@H](C(=O)C(=O)Nc1cc(C)ccc1C)c1nc2ccccc2[nH]c1=O` [Decoy341], the Type is given as “Inactive (Decoy)”.
For `Nc1ncnc2c1ncn2[C@@H]1O[C@@H](CO[P@@](=O)(O)O[P@@](=O)(O)OC[C@H](O)[C@H](O)[C@H](O)C=O)[C@@H](O)[C@H]1O` [Decoy402], the Type is listed as “Inactive (Decoy)”.
For `CCOc1ccc(-c2n[nH]c3c2[C@H](c2cc(OC)c(OC(C)=O)c(OC)c2)C(C#N)=C(N)O3)cc1` [Decoy509], the Type is listed as “Inactive (Decoy)”.
In the case of `COc1cc(O)cc(C)c1C(=O)O[C@H]1[C@H](O)[C@@H](O)[C@@H](OC2[C@@H](O)[C@H](O)C(O)[C@H](O)[C@@H]2O)O[C@@H]1CO` (stereo partly drawn) [Decoy641], the Type is listed as “Inactive (Decoy)”.
For `Cc1n[nH]c2nc(SCC(=O)NCCc3ccc(S(N)(=O)=O)cc3)[n+](-c3ccc(Br)cc3)c(N)c12` [Decoy390], the Type is listed as “Inactive (Decoy)”.
